Test: UV absorption of diluted aqueous dispersions in UV spectrophotometer
Format: physicochemical
Conditions: pure lipid solution in 96% ethanol or aqueous surfactant solution of the same concentration; 250-450 nm
Description: The UV-blocking action of the agent was studied by measuring the UV absorption of the lipid particle dispersion in a UV spectrophotometer. The criterion was the reduced permeability of the lipid particle dispersion for UV radiation in the wavelength range up 280 nm (UV C), from 280 nm to 315 nm (=UV B) und from 315 nm to 400 nm (UV A). A further test to quantify the UV-blocking action was the determination of the reduced permeability of particle films using the standard test with Transpore™ tape (B. L. Diffey, P. M. Farr, Sunscreen protection against UVB, UVA and blue light; an in vivo and in vitro comparison, British Journal of Dermatology 124, 1991, 258-263). The particle films were produced by spreading the particle dispersion on Transpore™ tape and then air-drying. The films thus produced were then glued onto one side of a quartz cuvette and the UV permeability was determined by a photometer. The measurements took place against the corresponding references, e.g. O/W emulsion with the same lipid content as well as UV blockers incorporated into the oil phase of an emulsion.
A lipid particle dispersion consisting of 10% (m/m) cetyl palmitate, 1.2% (m/m) polyglycerol methylglucose distearate (Tego Care 450) and water was produced by high pressure homogenization. The mixture of lipid and emulsifier was melted at 75° C. and dispersed in the aqueous solution with an Ultra-Turrax T25 with dispersing tool S25, Janke und Kunkel (8000 rpm for 1 minute). The obtained pre-emulsion was then homogenized with an APV Gaulin LAB 40 homogenizer at 500 bar with 3 cycles at 75° C. Lipid particles resulted with a PCS diameter of 221 nm and a polydispersity index of 0.06. For comparison, an emulsion system was produced in which the 10% cetyl palmitate was replaced by 10% Miglyol 812. The production parameter was dispersion with the Ultra-Turrax (8000 rpm for 1 minute). The UV-blocking action was examined with a Uvikon 940 spectrophotometer, Kontron, in the wavelength range of 250-450 nm. […]

Absorption over the whole measurement range, did not absorb:
CCCCCCCCCCCCCCCCOC(=O)CCCCCCCCCCCCCCC [cetyl palmitate]
CCCCCCCCCCCCCCCCCCO [stearyl alcohol]
polyglycerol methylglucose distearate [Tego Care 450]
